Data on 17 compounds can be found in patent publication US6812346B2, “Substituted pyridines as selective cyclooxygenase-2 inhibitors” (Merck Frosst Canada and Co., priority 1996, dated 2004).

pIC50: −log10 of the molar value. Like-named read-outs stand apart in the source and are kept apart here. Some results are limits rather than exact numbers.

For experiment [1], the target named is T1, COX-1 (Homo sapiens, UniProt P23219).
T1 construct: Assay of COX-1 Activity from U937 Cell Microsomes; endogenous in cells; host or cells: U937 cells, 100,000 x g microsomal fraction
Briefly: Cox-1 U937 (COX-1 activity from U937 cell microsomes). The format is biochemical. Particulars: U937, PGE2 synthesis in presence of AA. On the procedure: Assay of COX-1 Activity from U937 Cell Microsomes
U 937 cells are pelleted by centrifugation at 500×g for 5 min and washed once with phosphate-buffered saline and repelleted. Cells are resuspended in homogenization buffer consisting of 0.1 M Tris-HCl, pH 7.4, 10 mM EDTA, 2 μg/ml leupeptin, 2 μg/ml soybean trypsin inhibitor, 2 μg/ml aprotinin and 1 mM phenyl methyl sulfonyl fluoride. The cell suspension is sonicated 4 times for 10 sec and is centrifuged at 10,000×g for 10 min at 4° C. The supernatant is centrifuged at 100,000×g for 1 hr at 4° C. The 100,000×g microsomal pellet is resuspended in 0.1 M Tris-HCl, pH 7.4, 10 mM EDTA to approximately 7 mg protein/ml and stored at −80° C.
Assays are performed in duplicate in a final volume of 250 μl. Initially, 5 μl of DMSO vehicle or drug in DMSO are added to 20 μl of 0.1 M Tris-HCl buffer, pH 7.4 containing 10 mM EDTA in wells of a 96-deepwell polypropylene titre plate. 200 μl of the microsomal preparation are then added and pre-incubated for 15 min at room temperature before addition of 25 μl of […] in […] Tris-HCl and 10 mM EDTA, pH 7.4. Samples are incubated for 40 min at room temperature and the reaction is stopped by the addition of 25 μl of 1 N HCl. Samples are neutralized with 25 μl of 1 N NaOH prior to quantitation of PGE2 content by radioimmunoassay (Dupont-NEN or Amersham assay kits). Cyclooxygenase activity is defined as the difference between PGE2 levels in samples incubated in the presence of arachidonic acid and ethanol vehicle.

The target in experiment [2] is T2, COX-2 (Homo sapiens, UniProt P35354).
T2 sequence (P35354 18-604): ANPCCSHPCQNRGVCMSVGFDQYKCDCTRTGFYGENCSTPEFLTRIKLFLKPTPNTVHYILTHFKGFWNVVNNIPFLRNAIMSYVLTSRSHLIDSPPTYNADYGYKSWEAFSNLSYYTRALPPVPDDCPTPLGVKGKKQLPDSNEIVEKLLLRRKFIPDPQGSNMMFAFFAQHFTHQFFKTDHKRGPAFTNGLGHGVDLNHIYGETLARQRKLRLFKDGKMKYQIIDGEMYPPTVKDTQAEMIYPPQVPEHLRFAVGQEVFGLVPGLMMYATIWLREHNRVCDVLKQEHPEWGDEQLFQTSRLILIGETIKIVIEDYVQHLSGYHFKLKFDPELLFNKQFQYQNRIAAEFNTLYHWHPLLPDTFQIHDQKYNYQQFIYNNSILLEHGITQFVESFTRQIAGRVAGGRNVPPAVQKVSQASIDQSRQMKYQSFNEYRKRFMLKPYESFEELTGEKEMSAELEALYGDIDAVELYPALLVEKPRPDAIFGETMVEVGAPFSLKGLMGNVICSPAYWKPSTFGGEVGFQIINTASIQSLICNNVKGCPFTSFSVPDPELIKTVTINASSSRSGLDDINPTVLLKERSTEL
Briefly: Human whole blood assay, COX-2 (LPS-induced PGE2 production). The format is cell-based. The text has this:
As well, platelets in whole blood contain a large amount of the COX-1 enzyme. Immediately following blood clotting, platelets are activated through a thrombin-mediated mechanism. This reaction results in the production of thromboxane B2 (TxB2) via activation of COX-1. Thus, the effect of test compounds on TxB2 levels following blood clotting can be examined and used as an index for COX-1 activity. Therefore, the degree of selectivity by the test compound can be determined by measuring the levels of PGE2 after LPS induction (COX-2) and TxB2 following blood clotting (COX-1) in the same assay.
Step A: COX-2 (LPS-induced PGE2 Production)
Fresh blood is collected in heparinized tubes by venipuncture from both male and female volunteers. The subjects have no apparent inflammatory conditions and have not taken any NSAIDs for at least 7 days prior to blood collection. Plasma is immediately obtained from a 2 mL blood aliquot to use as blank (basal levels of PGE2).

Experiment [3] concerns carrageenan-induced rat paw edema. Briefly: Rat paw edema assay. Particulars: male Sprague-Dawley rats, po, 1 hr before carrageenan, paw volume 3 hr later; for ED50: Rattus norvegicus. The experiment is classed as in vivo. The protocol:
Male Sprague-Dawley rats (150-200 g) are fasted overnight and are given, po, either vehicle (1% methocel or 5% Tween 80) or a test compound. One hr later, a line is drawn using a permanent marker at the level above the ankle in one hind paw to define the area of the paw to be monitored. The paw volume (V0) is measured using a plethysmometer (Ugo-Basile, Italy) based on the principle of water displacement. The animals are then injected subplantarly with 50 μl of 1% carrageenan solution in saline (FMC Corp, Maine) into the paw using an insulin syringe with a 25-gauge needle (i.e. 500 μg carrageenan per paw). Three hr later, the paw volume (V3) is measured and the increases in paw volume (V3-V0) are calculated. The animals are sacrificed by CO2 asphyxiation and the absence or presence of stomach lesions scored. Data is compared with the vehicle-control values and percent inhibition calculated. All treatment groups are coded to eliminate observer bias.

Setting [4] is: Cox-1 U937 IC50 over Cox-2 whole blood IC50.
Setting [5] is: human whole blood, LPS-induced PGE2 production, 24 hours at 37° C., read-out: Cox-2 Whole Blood (IC50).

T1 sequence (P23219 24-599): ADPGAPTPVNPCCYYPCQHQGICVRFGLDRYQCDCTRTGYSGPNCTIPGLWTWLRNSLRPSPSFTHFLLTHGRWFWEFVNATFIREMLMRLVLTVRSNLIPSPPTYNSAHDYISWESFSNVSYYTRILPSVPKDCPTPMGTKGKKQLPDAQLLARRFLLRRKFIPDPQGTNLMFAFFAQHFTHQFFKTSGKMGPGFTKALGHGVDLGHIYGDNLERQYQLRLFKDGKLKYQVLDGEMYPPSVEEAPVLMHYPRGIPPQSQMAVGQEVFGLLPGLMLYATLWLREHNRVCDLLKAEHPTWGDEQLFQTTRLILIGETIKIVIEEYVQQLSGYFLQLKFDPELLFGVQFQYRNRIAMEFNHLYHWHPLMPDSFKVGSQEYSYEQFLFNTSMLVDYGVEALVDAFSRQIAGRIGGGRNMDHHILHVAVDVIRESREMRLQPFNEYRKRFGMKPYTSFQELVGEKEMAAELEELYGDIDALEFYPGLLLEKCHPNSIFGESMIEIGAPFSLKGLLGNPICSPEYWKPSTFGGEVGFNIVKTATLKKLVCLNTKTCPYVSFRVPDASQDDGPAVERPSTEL

One may read the pIC50 as the IC50 on a negative log10 scale, so that one unit is a factor of ten. `CS(=O)(=O)c1ccc(-c2cc(C(F)(F)F)cnc2-c2cccnc2)cc1` [Example 7, 3-(4-Methylsulfonyl)phenyl-2-(3-pyridinyl)-5-trifluoromethylpyridine]: the pIC50 in experiment [1] is 5.30.

`CS(=O)(=O)c1ccc(-c2cc(C(F)(F)F)cnc2-c2ccc(F)cc2)cc1` [Example 4, 2-(4-Fluorophenyl)-3-(4-methylsulfonyl)phenyl-5-trifluoromethylpyridine]: the pIC50 was 6.00 in experiment [1] and 6.52 in experiment [2] (setting [5]). Further, the “Selectivity Ratio” value in experiment [2] (setting [4]) worked out at 3.3.

Consider `CS(=O)(=O)c1ccc(-c2cc(Cl)cnc2-c2cccnc2)cc1.Cl` [Example 47, 5-Chloro-3-(4-methylsulfonyl)phenyl-2-(3-pyridyl)pyridine hydrochloride], for which, in experiment [3], the “Rat Paw Edema (ED50, mg/kg)” value was 2.4 mg/kg.

The term ED50 denotes the midpoint of the dose-response relation. On to `CS(=O)(=O)c1ccc(-c2cc(Cl)cnc2-c2cccnc2)cc1` [Example 21, 5-Chloro-3-(4-methylsulfonyl)phenyl-2-(3-pyridinyl)pyridine], for which it took a dose of 2.3 mg/kg to reach the 50% effect level in experiment [3] (ED50). The pIC50 is 4.80 in experiment [1] and 6.00 in experiment [2] (setting [5]). Further, the “Selectivity Ratio” value in experiment [2] (setting [4]) was determined as 16.

The compound `CS(=O)(=O)c1ccc(-c2cc(C#N)cnc2-c2ccc(Cl)cc2)cc1` [Example 45, 5-Cyano-2-(4-chlorophenyl)-3-(4-methylsulfonyl)phenylpyridine] yielded an ED50 in experiment [3] of 3 mg/kg. Further, the pIC50 is less than 5.00 in experiment [1] and 5.66 in experiment [2] (setting [5]). For the same compound, in experiment [2] (setting [4]), the “Selectivity Ratio” value is given as greater than 4.5.

Regarding `Cc1ccc(-c2ncc(Cl)cc2-c2ccc(S(C)(=O)=O)cc2)cn1` [Example 23, 5-Chloro-3-(4-methylsulfonyl)phenyl-2-(2-methyl-5-pyridinyl)pyridine], the pIC50 in experiment [1] is less than 5.00.

`CS(=O)(=O)c1ccc(-c2cccnc2-c2ccccc2)cc1` [Aa, reference compound]: in experiment [3], the ED50 was greater than 10 mg/kg.

The compound `CS(=O)(=O)c1ccc(-c2cc(Br)cnc2-c2cccnc2)cc1` [Example 32] yielded an ED50 in experiment [3] of 0.9 mg/kg. The pIC50 in experiment [1] was less than 5.00; in experiment [2] (setting [5]) it was 5.92.

As for `CS(=O)(=O)c1ccc(-c2cc(C(F)(F)F)cnc2-c2ccc(Cl)cc2)cc1` [Example 3, 2-(4-Chlorophenyl)-3-(4-methylsulfonyl)phenyl-5-trifluoromethylpyridine], the results for the pIC50 in experiment [1] and in experiment [2] (setting [5]) were 5.74 and 6.05, respectively. Further, the “Selectivity Ratio” value in experiment [2] (setting [4]) was found to be 2.

On to `CS(=O)(=O)c1ccc(-c2cc(Cl)cnc2-c2ccc(C3CC3)nc2)cc1` [Example 73, 5-Chloro-3-(4-methylsulfonyl)phenyl-2-(2-cyclopropyl-5-pyridinyl)pyridine], for which, in experiment [3], the ED50 amounted to 2 mg/kg. Further, in experiment [1], the pIC50 is 5.15. In experiment [2], the pIC50 is 5.74 and the “Selectivity Ratio” value is given as 3.8.

In the case of `Cc1ccc(-c2ncc(Cl)cc2-c2ccc(S(C)(=O)=O)cc2)cn1.Cl` [Example 59, 5-Chloro-3-(4-methylsulfonyl)phenyl-2-(2-methyl-5-pyridinyl)pyridine Hydrochloride], in experiment [3], the “Rat Paw Edema (ED50, mg/kg)” value is given as 0.8 mg/kg.

In turn, `CCc1ccc(-c2ncc(Cl)cc2-c2ccc(S(C)(=O)=O)cc2)cn1` [Example 71, 5-Chloro-3-(4-methylsulfonyl)phenyl-2-(2-ethyl-5-pyridinyl)pyridine] returned an ED50 in experiment [3] of 1.6 mg/kg. In experiment [1], the pIC50 was less than 5.00.

Turning to `CS(=O)(=O)O.CS(=O)(=O)c1ccc(-c2cc(Cl)cnc2-c2cccnc2)cc1` [Example 46, 5-Chloro-3-(4-methylsulfonyl)phenyl-2-(3-pyridyl)pyridine hydromethanesulfonate], the “Rat Paw Edema (ED50, mg/kg)” value in experiment [3] was 3.3 mg/kg.

With `CS(=O)(=O)c1ccc(-c2cc(C(F)(F)F)cnc2-c2ccccc2)cc1` [Example 1, 3-(4-Methylsulfonyl)phenyl-2-phenyl-5-trifluoromethylpyridine], the ED50 in experiment [3] was 5.4 mg/kg. For the same compound, the pIC50 was 5.82 in experiment [1] and 6.52 in experiment [2] (setting [5]). In experiment [2] (setting [4]), the “Selectivity Ratio” value came to 4.4.

As to `Cc1cnc(-c2ccc(Cl)cc2)c(-c2ccc(S(C)(=O)=O)cc2)c1` [Example 14, 2-(4-Chlorophenyl)-5-methyl-3-(4-methylsulfonyl)phenylpyridine], the pIC50 in experiment [1] was 5.85; in experiment [2] (setting [5]), 6.15. The “Selectivity Ratio” value in experiment [2] (setting [4]) came out at 2.

Consider `CS(=O)(=O)c1ccc(-c2cccnc2-c2ccc(F)cc2)cc1` [Ab, reference compound], for which the results for the pIC50 in experiment [1] and in experiment [2] (setting [5]) were 5.66 and 5.31, respectively.

Consider `Cc1cnc(-c2ccccc2)c(-c2ccc(S(C)(=O)=O)cc2)c1` [Example 13, 5-Methyl-3-(4-methylsulfonyl)phenyl-2-phenylpyridine], for which the pIC50 in experiment [1] is 5.52; in experiment [2] (setting [5]), 6.30. The “Selectivity Ratio” value in experiment [2] (setting [4]) came to 6.
